Source: PubChem BioAssay AID1259407 (Chemical Carcinogenesis Research Information System (CCRIS), 2018)
Activity calls are given as the source filed them. The rule behind the calls is not given here.

Test system: CCRIS mutagenicity, Ames/micronucleus/aberration tests
Test: CCRIS mutagenicity studies
[1] = Test System: AMES SALMONELLA TYPHIMURIUM, Strain/Indicator: TA98, Metabolic Activation: NONE, Method: STANDARD PLATE
[2] = Test System: AMES SALMONELLA TYPHIMURIUM, Strain/Indicator: TA100, Metabolic Activation: NONE, Method: STANDARD PLATE
[3] = Test System: AMES SALMONELLA TYPHIMURIUM, Strain/Indicator: TA1535, Metabolic Activation: NONE, Method: STANDARD PLATE
[4] = Test System: AMES SALMONELLA TYPHIMURIUM, Strain/Indicator: TA1537, Metabolic Activation: NONE, Method: STANDARD PLATE
[5] = Test System: AMES SALMONELLA TYPHIMURIUM, Strain/Indicator: TA98, Metabolic Activation: RAT, LIVER, S-9, AROCLOR 1254, Method: STANDARD PLATE

O=C1c2ccc3nc(-c4ccccc4)sc3c2C(=O)c2ccc3nc(-c4ccccc4)sc3c21
mutagenic call (Test System: AMES SALMONELLA TYPHIMURIUM, Strain/Indicator: TA98, Metabolic Activation: HAMSTER, LIVER, S-9, AROCLOR 1254 (10%), Method: STANDARD PLATE): inactive; negative
mutagenic call [1]: inactive; negative
mutagenic call (Test System: AMES SALMONELLA TYPHIMURIUM, Strain/Indicator: TA98, Metabolic Activation: RAT, LIVER, S-9, AROCLOR 1254 (10%), Method: STANDARD PLATE): inactive; negative
mutagenic call (Test System: AMES SALMONELLA TYPHIMURIUM, Strain/Indicator: TA100, Metabolic Activation: HAMSTER, LIVER, S-9, AROCLOR 1254 (10%), Method: STANDARD PLATE): inactive; negative
mutagenic call [2]: inactive; negative
mutagenic call (Test System: AMES SALMONELLA TYPHIMURIUM, Strain/Indicator: TA100, Metabolic Activation: RAT, LIVER, S-9, AROCLOR 1254 (10%), Method: STANDARD PLATE): inactive; negative
mutagenic call (Test System: AMES SALMONELLA TYPHIMURIUM, Strain/Indicator: TA1535, Metabolic Activation: HAMSTER, LIVER, S-9, AROCLOR 1254 (10%), Method: STANDARD PLATE): inactive; negative
mutagenic call [3]: inactive; negative
mutagenic call (Test System: AMES SALMONELLA TYPHIMURIUM, Strain/Indicator: TA1535, Metabolic Activation: RAT, LIVER, S-9, AROCLOR 1254 (10%), Method: STANDARD PLATE): inactive; negative
mutagenic call (Test System: AMES SALMONELLA TYPHIMURIUM, Strain/Indicator: TA1537, Metabolic Activation: HAMSTER, LIVER, S-9, AROCLOR 1254 (10%), Method: STANDARD PLATE): inactive; negative
mutagenic call [4]: inactive; negative
mutagenic call (Test System: AMES SALMONELLA TYPHIMURIUM, Strain/Indicator: TA1537, Metabolic Activation: RAT, LIVER, S-9, AROCLOR 1254 (10%), Method: STANDARD PLATE): inactive; negative
mutagenic call (Test System: AMES SALMONELLA TYPHIMURIUM, Strain/Indicator: TA1538, Metabolic Activation: HAMSTER, LIVER, S-9, AROCLOR 1254 (10%), Method: STANDARD PLATE): inactive; negative
mutagenic call (Test System: AMES SALMONELLA TYPHIMURIUM, Strain/Indicator: TA1538, Metabolic Activation: NONE, Method: STANDARD PLATE): inactive; negative
mutagenic call (Test System: AMES SALMONELLA TYPHIMURIUM, Strain/Indicator: TA1538, Metabolic Activation: RAT, LIVER, S-9, AROCLOR 1254 (10%), Method: STANDARD PLATE): inactive; negative
mutagenic call (Test System: MOUSE LYMPHOMA, Strain/Indicator: L5178Y (TK+/TK-), Metabolic Activation: NONE, Method: SUSPENSION/PLATE): inactive; negative
mutagenic call (Test System: MOUSE LYMPHOMA, Strain/Indicator: L5178Y (TK+/TK-), Metabolic Activation: RAT, LIVER, S-9, AROCLOR 1254, Method: SUSPENSION/PLATE): active; positive

Cn1c(NO)nc2ncc(-c3ccccc3)cc21
mutagenic call (Test System: AMES SALMONELLA TYPHIMURIUM, Strain/Indicator: TA98(1,8-DNP6), Metabolic Activation: NONE, Method: STANDARD PLATE): active; positive
mutagenic call [1]: active; positive
mutagenic call [5]: active; positive

CC1(S(=O)(=O)O)CC(=O)c2ccccc2C1=O (stereo not given) (tested in a mixture with another compound)
mutagenic call (Test System: AMES SALMONELLA TYPHIMURIUM, Strain/Indicator: TA98, Metabolic Activation: NONE, Method: SPIRAL ASSAY): inactive; negative
mutagenic call [1]: inactive; negative
mutagenic call (Test System: AMES SALMONELLA TYPHIMURIUM, Strain/Indicator: TA98, Metabolic Activation: RAT, LIVER, S-9, AROCLOR 1254, Method: SPIRAL ASSAY): inactive; negative
mutagenic call [5]: active; positive
mutagenic call (Test System: AMES SALMONELLA TYPHIMURIUM, Strain/Indicator: TA100, Metabolic Activation: NONE, Method: SPIRAL ASSAY): inactive; negative
mutagenic call [2]: inactive; negative
mutagenic call (Test System: AMES SALMONELLA TYPHIMURIUM, Strain/Indicator: TA100, Metabolic Activation: RAT, LIVER, S-9, AROCLOR 1254, Method: SPIRAL ASSAY): inactive; negative
mutagenic call (Test System: AMES SALMONELLA TYPHIMURIUM, Strain/Indicator: TA100, Metabolic Activation: RAT, LIVER, S-9, AROCLOR 1254, Method: STANDARD PLATE): inactive; negative
mutagenic call (Test System: AMES SALMONELLA TYPHIMURIUM, Strain/Indicator: TA1535, Metabolic Activation: NONE, Method: SPIRAL ASSAY): inactive; negative
mutagenic call [3]: inactive; negative
mutagenic call (Test System: AMES SALMONELLA TYPHIMURIUM, Strain/Indicator: TA1535, Metabolic Activation: RAT, LIVER, S-9, AROCLOR 1254, Method: SPIRAL ASSAY): inactive; negative
mutagenic call (Test System: AMES SALMONELLA TYPHIMURIUM, Strain/Indicator: TA1535, Metabolic Activation: RAT, LIVER, S-9, AROCLOR 1254, Method: STANDARD PLATE): inactive; negative
mutagenic call (Test System: AMES SALMONELLA TYPHIMURIUM, Strain/Indicator: TA1537, Metabolic Activation: NONE, Method: SPIRAL ASSAY): inactive; negative
mutagenic call [4]: inactive; negative
mutagenic call (Test System: AMES SALMONELLA TYPHIMURIUM, Strain/Indicator: TA1537, Metabolic Activation: RAT, LIVER, S-9, AROCLOR 1254, Method: SPIRAL ASSAY): inactive; negative
mutagenic call (Test System: AMES SALMONELLA TYPHIMURIUM, Strain/Indicator: TA1537, Metabolic Activation: RAT, LIVER, S-9, AROCLOR 1254, Method: STANDARD PLATE): inactive; negative

CC(C)NCC(O)COc1ccc(CC(N)=O)cc1 (stereo not given)
mutagenic call (Test System: AMES SALMONELLA TYPHIMURIUM, Strain/Indicator: TA98, Metabolic Activation: NONE): inactive; negative
mutagenic call (Test System: AMES SALMONELLA TYPHIMURIUM, Strain/Indicator: TA98, Metabolic Activation: RAT, LIVER, S-9, AROCLOR 1254): inactive; negative
mutagenic call (Test System: AMES SALMONELLA TYPHIMURIUM, Strain/Indicator: TA100, Metabolic Activation: NONE): inactive; negative
mutagenic call (Test System: AMES SALMONELLA TYPHIMURIUM, Strain/Indicator: TA100, Metabolic Activation: RAT, LIVER, S-9, AROCLOR 1254): inactive; negative
mutagenic call (Test System: AMES SALMONELLA TYPHIMURIUM, Strain/Indicator: TA1535, Metabolic Activation: NONE): inactive; negative
mutagenic call (Test System: AMES SALMONELLA TYPHIMURIUM, Strain/Indicator: TA1535, Metabolic Activation: RAT, LIVER, S-9, AROCLOR 1254): inactive; negative
mutagenic call (Test System: AMES SALMONELLA TYPHIMURIUM, Strain/Indicator: TA1537, Metabolic Activation: NONE): inactive; negative
mutagenic call (Test System: AMES SALMONELLA TYPHIMURIUM, Strain/Indicator: TA1537, Metabolic Activation: RAT, LIVER, S-9, AROCLOR 1254): inactive; negative
mutagenic call (Test System: UDS HUMAN HEPATOCYTES, Strain/Indicator: THY INCORP, Metabolic Activation: NONE, Method: AUTORADIOGRAPHY): inactive; negative
mutagenic call (Test System: UDS RAT HEPATOCYTES, Strain/Indicator: THY INCORP, Metabolic Activation: NONE, Method: AUTORADIOGRAPHY): inactive; negative

COC(=O)CCl
mutagenic call (Test System: AMES SALMONELLA TYPHIMURIUM, Strain/Indicator: TA102, Metabolic Activation: NONE, Method: STANDARD PLATE): inactive; negative
mutagenic call (Test System: AMES SALMONELLA TYPHIMURIUM, Strain/Indicator: TA2638, Metabolic Activation: NONE, Method: STANDARD PLATE): inactive; negative
mutagenic call (Test System: E. COLI, Strain/Indicator: WP2 (PKM101), Metabolic Activation: NONE, Method: STANDARD PLATE): inactive; negative
mutagenic call (Test System: E. COLI, Strain/Indicator: WP2 UVRA (PKM101), Metabolic Activation: NONE, Method: STANDARD PLATE): inactive; negative
